Among the data in patent US20240382601A1, “EMULSION FORMULATION HAVING HIGH FORMULATION STABILITY AND MANUFACTURING METHOD THEREOF” (AMOREPACIFIC CORPORATION, priority 2023, published 2024) are logP and HLB values, retold here.

Series [1] in a line: logP values of complex ingredients.
Excerpt: (§1) Among the above ingredients, the logP values of dipropylene glycol, diethoxyethyl 5 succinate.
Series [2] in a line: HLB values of surfactants. Type of series: physicochemical.
Excerpt: as §1

`CCCCCCCCCCCCOCCOCCO` [Diethylene glycol lauryl ether]: the logP (usually a log measure of how a compound divides between an organic and an aqueous phase) in series [1] was found to be 4.
Regarding Polysorbate 20, the HLB in series [2] is given as 17.
With `CCOCCOC(=O)CCC(=O)OCCOCC` [Diethoxyethyl succinate], in series [1], the logP is 0.25.
On to Polysorbate 60, for which, in series [2], the HLB is 15.
